# Experimental data published in patent EP0516660B1, “USE OF S-ADENOSYL METHIONINE AS AN AGENT AGAINST VIRAL INFECTIONS BY RETROVIRUSES” (Grundmann, Ewald, Dr., priority 1990, dated 1991).
# Tested on: HIV
# Test: HIV-infected lymphocyte cultures, virus amount determined as radioactive reverse transcriptase in the culture supernatant
# Type: cell-based
# Details: for Reverse Transkriptase: HIV-Zahl in Lymphocyten-Kultur
# Method: Lymphocyten-Kulturen aus der Nabelschnur von Neugeborenen (H. Rübsamen-Waigmann et al. "Isolation of Variants of Lymphocytopathic Retroviruses from the Peripheral Blood and Cerebrospinal Fluid of Patients with ABC or AIDS", J. Medical Virology 19, S. 335 bis 344; 1986) wurden mit Viren, die dem Blut von AIDS-Kranken entnommen waren, geimpft. Dazu werden zu 5 ml der Lymphocyten-Kultur (1 · 10⁶ Zellen pro ml) 0,5 ml einer HIV-Suspension gegeben, die 10⁴ bis 10⁵ infektiöse Partikel pro ml enthält. Die Kulturmedien werden mit unterschiedlichen Mengen S-Adenosyl-L-methionintosylat-bis-Sulfat versetzt. Ein Drittel bis zur Hälfte des jeweiligen Kulturmediums werden nach 1 bis 2 Tagen durch frisches Kulturmedium gleicher Zusammensetzung ersetzt.
# Retroviren zeichnen sich dadurch aus, daß sie ausschließlich RNA (Ribonukleinsäure) als Nukleinsäure enthalten und eine spezielle Polymerase, nämlich Reverse Transkriptase benötigen, die nach der Infektion in der Wirtszelle aus der Virus-RNA eine in die DNA der Wirtszelle einbaubare Virus-DNA bildet, vgl. H. Rübsamen "Biochemie der Tumorviren", Chemie in unserer Zeit 17, S. 169 bis 180; 1983. Daraus ergibt sich eine Nachweismethode für Retroviren, die auf der für diese typischen Reversen Transkriptase und dem durch diese in die DNA eingebauten Tritium-markierten Thymidin beruht, vgl. H. Rübsamen et al., l.c.:
# In Abhängigkeit vom positiven Nachweis der Infektion durch mikroskopische Kontrolle werden nach 3 bis 5 Tagen jeweils 5 ml der überstehenden Kulturflüssigkeit durch Zentrifugieren (1o min bei 10.000 g) geklärt. Die so geklärte Probe wird bei 100.000 g/50 min zentrifugiert und der Rückstand in 60 µl eines Tris-Puffers lysiert (10 mM Tris, 0,2 % Triton X-100, 1 mM EDTA, 5 mM Dithiothreitol, 60 mM KCl, pH 7,3).
# Jeweils 30 µl des Lysats werden mit 30 µl Templat (0,01 mg/ml Poly(rA)·oligo (dT) (Pharmacia, Uppsala, Schweden) in 5 mM MgCl₂, 2,4 mM Dithiothreitol, 60 mM KCl und 0,0034 mM Methyl-[³H]thymidin-5'-Triphosphat; 48 Ci/mM, Amersham, Bucks; England) 90 min bei 37° C inkubiert. Die Reaktion wird durch Zugabe von 10-proz. Laurylsarkosin bis zu einer Laurylsarkosin-Endkonzentration von 1,4 % beendet. Die freie und in das RNA/DNA-Hybrid eingebaute Radioaktivität von 10 µl des mit Laurylsarkosin versetzten Inkubats werden dann in üblicher Weise an einem DEAE-Filter getrennt, das nach dem Waschen und Trocknen in eine Szintillationsflüssigkeit gegeben wird. Die Radioaktivität wird dann mit einem Szintillationszähler gemessen. Die eingebaute Radioaktivität (Zerfälle pro min pro 5 ml) nach Abzug des Blindwertes ist dann ein Maß für die in der überstehenden Kulturflüssigkeit enthaltene Reverse Transkriptase und damit für die Menge an Retroviren, die in der Kultur enthalten sind.
smiles,measurement,setting,value
"C[S+](CC[C@H](N)C(=O)O)C[C@H]1O[C@@H](n2cnc3c(N)ncnc32)[C@H](O)[C@@H]1O (stereo partly drawn) [Adenosylmethionin, S-Adenosyl-L-methionintosylat-bis-Sulfat]",Reverse Transkriptase,Adenosylmethionin 4 µg/ml,114 000 counts/min und 5 ml
same,Reverse Transkriptase,Adenosylmethionin 40 µg/ml,86 000 counts/min und 5 ml
same,Reverse Transkriptase,Adenosylmethionin 200 µg/ml,73 000 counts/min und 5 ml
same,Reverse Transkriptase,Adenosylmethionin 400 µg/ml,60 000 counts/min und 5 ml
same,Reverse Transkriptase,Adenosylmethionin 1000 µg/ml,29 000 counts/min und 5 ml
same,IC50,"Human immunodeficiency virus 1, Lymphocyte, read-out: Halbwertskonzentration, bei der die Retrovirenkonzentration auf die Hälfte zurückgeht",100 to 200 µg/mL
